pIC50: −log10 of the molar value.
Assays:
[1] = tested on: PARP cleavage in Jurkat cells; test: Inhibition of PARP cleavage in antiFas-treated Jurkat cells (Example 22, Western blot); type: cell-based, human; details: for inhibition of PARP cleavage: antiFas-treated Jurkat cells
Description: The cleavage of the enzyme poly(ADP)ribose polymerase (PARP) appears to occur in all cells in which the caspase proteolytic cascade is activated. For this reason, PARP cleavage is widely used as a biochemical marker for caspase-mediated apoptosis. The ability of a cytoprotective drug to block PARP cleavage is considered to be an indication of the drug's ability to inhibit the caspase proteolytic cascade and, in particular, CPP32 (caspase-3), the main PARP protease. The ability of Cbz-Val-Asp(OMe)-CH2F to inhibit PARP cleavage was examined during Fas-mediated apoptosis of Jurkat cells, a human T-cell line. This cell culture model of apoptosis is well-characterized and is known to involve activation of at least two caspases, caspase-3 (CPP32) and caspase-8 (FLICE/MACH).
For PARP cleavage assays, Jurkat cells were seeded at a density of 500,000 cells per well in six-well multidishes in RPMI 1640 medium containing 10% FBS. The cells were pre-incubated with Cbz-Val-Asp(OMe)-CH2F or other test compounds for 2 hours at 37° C. in a CO2 incubator and then a monoclonal antibody to Fas was added at a final concentration of 500 ng/mL. Incubation at 37° C. in a CO2 incubator was continued for an additional 4 hours. […] An amount of lysate corresponding to 10 to 20 μg of protein was loaded on a 7.5% SDS polyacrylamide gel and electrophoresed for 2 to 2.5 hrs at 25 mA. The protein was then transferred to a PVDF membrane, probed with a rabbit polyclonal antibody to PARP, and visualized using chemiluminescence.
Jurkat cells were pre-incubated with 0.5, 5, or 50 μM of the following compounds: Cbz-Val-Asp(OMe)-CH2F (compound 1); BOC-Asp(OMe)-CH2F (compound 5); Cbz-Asp-α-([2,6-dichlorobenzoyloxy]-methyl ketone) (compound 6), Cbz-Glu(OMe)-Val-Asp(OMe)-CH2F (compound 3), Cbz-Asp(OMe)-Glu(OMe)-Val-Asp(OMe)-CH2F (SEQ ID NO:1) (compound 2), Cbz-Ile-Glu(OMe)-Thr-Asp(OMe)-CH2F (SEQ ID NO:2) (compound 4), or Cbz-Val-Ala-Asp(OMe)-CH2F (compound 7). The cells were then treated with antiFas and processed for Western Blotting.

[2] = tested on: PARP cleavage in Jurkat cells; test: Effect of Z-VD-fmk on PARP cleavage in antiFas-treated Jurkat cells (Example 24); type: cell-based, human
Protocol: Poly(ADP)ribose polymerase (PARP) was one of the first caspase-3 substrates identified and the cleavage of PARP is still considered to be a near-universal marker for caspase-3 activation and caspase-mediated apoptosis. The ability of an anti-apoptotic compound to block PARP cleavage is therefore a useful indicator of its ability to inhibit apoptosis. The potency of Z-VD-fmk in a PARP cleavage assay was tested using antiFas-treated Jurkat cells. 2×10^6 Jurkat cells were seeded in each well of a 6-well dish and pre-incubated with test compounds for 30 minutes. The cells were then challenged with 500 ng/mL of an agonistic antiFas antibody or PBS for 4 hours. The cells were then harvested, pelleted gently, washed two times with PBS and lysed in RIPA buffer. Aliquots of the lysate were analyzed by SDS-PAGE and the proteins were transferred to PVDF membranes for Western blotting. The primary antibody was a polyclonal antiPARP serum which cross-reacts with both full-length PARP and the caspase-3-generated cleavage product.

HeLa cells = test: Effect of Z-VD-fmk on TNF-α-induced cell death in HeLa cells (calcein AM, Example 25); type: cell-based; details: TNF-α 25 ng/mL + CHX 30 μg/mL, zero to 500 nM tested
Protocol: Tumor necrosis factor alpha (TNF-α) can trigger apoptosis in a number of cell types by initiating the caspase cascade and its apoptosis inducing activity can be inhibited by peptide-based caspase inhibitors. However, high concentrations of the inhibitors (50 μM or greater) is required to have good anti-apoptotic effect. HeLa cells, a cell line commonly employed in TNF-α cell death studies, was used here to determine the anti-apoptotic potency of Z-VD-fmk.
HeLa cells were seeded in 48-well multidishes at a density of 50,000 cells per well 24 hours before treatment. They were then pre-incubated with varying concentrations of Z-VD-fmk for 2 hours and challenged with TNF-α (25 ng/mL) and cycloheximide (CHX; 30 μg/mL). The cultures were incubated for an additional 24 hours and dead cells were removed by two washes with PBS. The density of surviving cells was then measured by incubating each culture for 45 minutes with calcein AM, a profluorescent dye which is taken up by living cells and converted to a fluorescent product. The resulting data were expressed as % control values (control values were cells incubated with cycloheximide but without TNF-α).
Z-VD-fmk provided good cytoprotection at concentrations approaching 100 nM.

Caspase-7 = target: T1, Caspase-7 (Homo sapiens, UniProt P55210); test: Recombinant caspase assay with Ac-DEVD-AMC, caspase-7; type: biochemical; details: 10 μM Ac-DEVD-AMC, 30 minutes at 37° C.
T1 construct: purchased PharMington (PharMingen, a Becton division company, San Diego, Calif.)
T1 sequence (P55210 24-198 limits assumed): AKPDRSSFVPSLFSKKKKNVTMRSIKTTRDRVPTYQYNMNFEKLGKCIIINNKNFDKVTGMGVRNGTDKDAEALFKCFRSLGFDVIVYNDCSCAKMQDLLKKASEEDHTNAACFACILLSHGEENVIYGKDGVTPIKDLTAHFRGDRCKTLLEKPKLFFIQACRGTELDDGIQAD
Protocol: The inhibitory activity of Cbz-Val-Asp-CH2F in recombinant caspase 3, 6, 7 and 8 obtained from PharMington (a Becton division company, San Diego, Calif.) were measured using Ac-DEVD-AMC (SEQ ID NO:1). The amount of each enzyme per assay was as following: 1 ng caspase3, 15 ng caspase6, 2 ng caspase7 and 60 ng caspase8. The enzyme reaction was conducted in 96-well plate using a caspase buffer (20 mM PIPES, 100 mM NaCl, 10 mM DTT, 1 mM EDTA, 0.1% CHAPS and 10% sucrose, pH 7.2) and the reaction was initiated by adding 10 μM Ac-DEVD-AMC (SEQ ID NO:1) (purchased from Quality Controlled Biochemicals, Inc. Hopkinton, Mass.). Twelve concentrations of Cbz-Val-Asp-CH2F ranged from 30 μM to […] were tested after incubation of the compound with recombinant caspases for 30 minutes at 37° C. […] The data was analyzed using GraphPrism software.

Row | Structure (SMILES) | inhibition of PARP cleavage ([1]; 0.5 μM) | inhibition of PARP cleavage ([1]; 5 μM) | inhibition of PARP cleavage ([1]; 50 μM) | concentration blocking the caspase proteolytic cascade in intact cells, fold lower than other known caspase inhibitors ([1]; Jurkat cells) | inhibition of PARP cleavage ([2]; 50 nM, antiFas-treated Jurkat cells) | inhibition of PARP cleavage ([2]; 250 nM, antiFas-treated Jurkat cells) | inhibition of PARP cleavage ([2]; 500 nM, antiFas-treated Jurkat cells) | potency as inhibitor of PARP cleavage in intact cells, fold relative to Z-VAD-fmk ([2]; Jurkat cells) | pIC50 ([2]; antiFas-treated Jurkat cells, read-out: IC50, inhibition of PARP cleavage (whole-cell apoptosis model)) | concentration providing good cytoprotection against TNF-α-induced cell death (HeLa cells) | pIC50 (Caspase-7)
1 | COC(=O)CC(NC(=O)C(NC(=O)OCc1ccccc1)C(C)C)C(=O)CF (stereo not drawn) [Cbz-Val-Asp(OMe)-CH2F, Z-Val-Asp-fmk Methyl Ester] | significant inhibition | completely inhibited | completely inhibited | at least 10 fold | – | – | – | – | – | – | –
2 | CC(C)[C@H](NC(=O)OCc1ccccc1)C(=O)NC(CC(=O)O)C(=O)CF (stereo partly drawn) [Cbz-Val-Asp-CH2F, Z-Val-Asp-fmk] | – | – | – | – | still retains much of its inhibitory activity | completely inhibits | completely inhibits | at least 10 fold | > 7.30 | ~100 nM | 8.17

From patent US6949516B2, “Dipeptide apoptosis inhibitors and the use thereof” (Cytovia, Inc., priority 1997, dated 2005)
